Reference: paper PMC4604124, “In Vitro Characterization of the Pharmacological Properties of the Anti-Cancer Chelator, Bp4eT, and Its Phase I Metabolites” (PLoS ONE, 2015)
Where “and” joins values, the source holds several entries; their conditions need not be identical. Identical values can stand only once.

Tests used:
[1] = tested on: A549 human lung adenocarcinoma cells; experiment: MTT cytotoxicity assay, A549 cells; type: cell-based; conditions: for IC50: MTT
Description: (§1) For cytotoxicity experiments, cancer cells were seeded at a density of 5,000 (MCF-7), 10,000 (HL-60) or 2,000 cells/well (HCT116 and A549) in 96-well plates (TPP) for 24 h/37°C prior to the addition of examined agents. The non-cancerous cells, 3T3 and H9c2 cells, were cultured for 24 h/37°C in 96-well plates at a density of 10,000 cells/well, the medium was then changed to serum- and pyruvate-free DMEM (Sigma-Aldrich) and incubated with the cells for another 24 h/37°C. The cytotoxic effects of Bp4eT and its metabolites were studied at different concentrations after a 72 h/37°C incubation. In order to aid the dissolution of the lipophilic ligands, 0.1% dimethyl sulfoxide (v/v) (DMSO; Sigma-Aldrich) was present in the culture medium of all groups. At this concentration, DMSO had no effect on cellular proliferation or viability.
(§2) The viability of cells were determined using an MTT assay (Sigma-Aldrich) according to previously established methods. The optical density of soluble MTT was measured at λ = 570 nm, subtracting the λ = 690 nm background using a Tecan Infinite 200M plate reader (Tecan Group, Männedorf, Switzerland). The viability or proliferation of experimental groups was expressed as a percentage of the untreated controls (100%).
(§3) SigmaStat for Windows 3.5 (Systat Software, San Jose, CA, USA) statistical software package was utilized to analyze results. The data are expressed as the mean ± SD of a given number of experiments. Statistical significance was determined using a one-way ANOVA with a Bonferroni post-hoc test or Student’s t-test. The results were considered to be statistically significant when p < 0.05. The IC50 values were calculated using CalcuSyn 2.0 software (Biosoft, Cambridge, UK). Cell cycle analysis was evaluated using MultiCycle AV Software (Phoenix Flow Systems, San Diego, CA, USA).

caspase 8 = experiment: Caspase activity, luminescent kit, caspase 8; type: cell-based, human; conditions: for Caspase 8 activity, % of the control: 100 nM, MCF-7, corrected for viability; for kaspáza 8, průměry (means of raw signal): mean of 4 experiments; for kaspáza 8, raw signal / kaspáza 8, signal / viabilita: individual experiments by date
Description: To assess the effect of the compounds on caspase activity, MCF-7 cells were incubated with 100 nM Bp4eT or its metabolites for 3, 24 or 72 h/37°C in 96-well plates, as described above. The cells were then lysed by adding 100 μL of cold lysis buffer (100 mM HEPES, 10 mM CHAPS, 10 mM D-L-dithiothreitol, pH 7.4) to 100 μL of medium in each well. Lysates were immediately frozen at -80°C. Thawed lysates were used to assess caspase activity using luminescent kits for caspases 3/7, 8 and 9 (Promega, Madison, WI, USA). The luminescence was measured using the Tecan Infinite 200M plate reader. Caspase activity in the experimental groups was corrected according to the cellular viability of each group and expressed as a percentage of activity of the untreated control (100%).

[2] = tested on: HCT116 human colorectal carcinoma cells; experiment: MTT cytotoxicity assay, HCT116 cells; type: cell-based; conditions: for MTT, relative to control (0 = 100): HCT116, 2 000 b/j
Description: as §1, §2, §3

## CCNC(=S)NN=C(c1ccccc1)c1ccccn1 [Bp4eT, 2-benzoylpyridine 4-ethyl-3-thiosemicarbazone]
[1]; 3T3/A549
  Therapeutic index, IC50 non-cancerous cells / IC50 neoplastic cells: 2.2
[1]; A549, 2 000 b/j, 3 nM, průměr (mean)
  MTT, relative to control (0 = 100): 92.19
[1]; A549, 2 000 b/j, 3 nM, single experiment (date)
  MTT, relative to control (0 = 100): 91.5535 and 92.8133 and 91.0654 and 88.0734 and 97.4647
[1]; A549, 2 000 b/j, 10 nM, průměr (mean)
  MTT, relative to control (0 = 100): 91.72
[1]; A549, 2 000 b/j, 10 nM, single experiment (date)
  MTT, relative to control (0 = 100): 91.5177 and 92.1605 and 92.1041 and 86.392 and 96.4421
[1]; A549, 2 000 b/j, 30 nM, průměr (mean)
  MTT, relative to control (0 = 100): 87.89
[1]; A549, 2 000 b/j, 30 nM, single experiment (date)
  MTT, relative to control (0 = 100): 87.7056 and 88.2789 and 85.7469 and 83.2321 and 94.498
[1]; A549, 2 000 b/j, 100 nM, průměr (mean)
  MTT, relative to control (0 = 100): 69.03
[1]; A549, 2 000 b/j, 100 nM, single experiment (date)
  MTT, relative to control (0 = 100): 72.0253 and 71.8755 and 68.5876 and 61.5642 and 71.0965
[1]; A549, 2 000 b/j, 300 nM, průměr (mean)
  MTT, relative to control (0 = 100): 52.20
[1]; A549, 2 000 b/j, 300 nM, single experiment (date)
  MTT, relative to control (0 = 100): 56.5532 and 52.1351 and 48.5459 and 51.5538
[1]; A549, 2 000 b/j, 1000 nM, průměr (mean)
  MTT, relative to control (0 = 100): 44.75
[1]; A549, 2 000 b/j, 1000 nM, single experiment (date)
  MTT, relative to control (0 = 100): 46.6699 and 42.1761 and 41.9617 and 48.1966
[1]; A549, 2 000 b/j, 3000 nM, průměr (mean)
  MTT, relative to control (0 = 100): 30.92
[1]; A549, 2 000 b/j, 3000 nM, single experiment (date)
  MTT, relative to control (0 = 100): 34.7604 and 31.7204 and 27.6953 and 29.4937
[1]; A549, 2 000 b/j, single experiment (date)
  IC50: 550 nM and 407 nM and 670 nM
[1]; H9c2/A549
  Therapeutic index, IC50 non-cancerous cells / IC50 neoplastic cells: 0.9
[1]; Homo sapiens, A549, 72 h, A549, 72 h/37°C, mean ± SD, n ≥ 4
  IC50: 593 ± 148 nM
[1]; Homo sapiens, A549, A549, 2 000 b/j, průměr (mean)
  IC50: 593 nM
[1]; Homo sapiens, A549, A549, 2 000 b/j, single experiment (date)
  IC50: 744 nM
[1]; against A549 cells (H9c2/A549 and 3T3/A549)
  Therapeutic indices, range: 0.9–2.2
Caspase 8; 24 h
  Caspase 8 activity, % of the control: 125%
Caspase 8; 72 h
  Caspase 8 activity, % of the control: 189%
Caspase 8; 3 hodiny (3 h), % of control
  kaspáza 8, % kontroly: 95.86%
Caspase 8; 3 hodiny (3 h)
  kaspáza 8, průměry (means of raw signal): 1343.75
Caspase 8; 3 hodiny
  kaspáza 8, raw signal: 2059 and 1157 and 1253.5 and 905.5
Caspase 8; 3 hodiny, mean
  kaspáza 8, raw signal, průměry: 1343.75
Caspase 8; 3 hodiny, mean, normalised to viability
  kaspáza 8, % kontroly: 100.78 % kontroly
Caspase 8; 3 hodiny, normalised to viability
  kaspáza 8, signal / viabilita: 21.3728 and 12.0099 and 13.0116 and 9.399
Caspase 8; 3 hodiny, normalised to viability, mean
  kaspáza 8, signal / viabilita, průměry: 13.9484
Caspase 8; 24 hodin (24 h), % of control
  kaspáza 8, % kontroly: 66.28%
Caspase 8; 24 hodin (24 h)
  kaspáza 8, průměry (means of raw signal): 1049.5
Caspase 8; 24 hodin
  kaspáza 8, raw signal: 1182.5 and 845.5 and 1242.5 and 927.5
Caspase 8; 24 hodin, mean
  kaspáza 8, raw signal, průměry: 1049.5
Caspase 8; 24 hodin, mean, normalised to viability
  kaspáza 8, % kontroly: 125.02 % kontroly
Caspase 8; 24 hodin, normalised to viability
  kaspáza 8, signal / viabilita: 22.3747 and 15.9981 and 23.51 and 17.5497
Caspase 8; 24 hodin, normalised to viability, mean
  kaspáza 8, signal / viabilita, průměry: 19.8581
Caspase 8; 72 hodin (72 h), % of control
  kaspáza 8, % kontroly: 50.72%
Caspase 8; 72 hodin (72 h)
  kaspáza 8, průměry (means of raw signal): 3576.88
Caspase 8; 72 hodin
  kaspáza 8, raw signal: 5283 and 3499.5 and 2666 and 2859
Caspase 8; 72 hodin, mean
  kaspáza 8, raw signal, průměry: 3576.88
Caspase 8; 72 hodin, mean, normalised to viability
  kaspáza 8, % kontroly: 188.91 % kontroly
Caspase 8; 72 hodin, normalised to viability
  kaspáza 8, signal / viabilita: 195.017 and 129.181 and 98.4127 and 105.537
Caspase 8; 72 hodin, normalised to viability, mean
  kaspáza 8, signal / viabilita, průměry: 132.037
[2]; 3T3/HCT116
  Therapeutic index, IC50 non-cancerous cells / IC50 neoplastic cells: 163.6
[2]; H9c2/HCT116
  Therapeutic index, IC50 non-cancerous cells / IC50 neoplastic cells: 65.5
[2]; 0.1 nM, průměr (mean)
  MTT, relative to control (0 = 100): 92.91
[2]; 0.1 nM, single experiment (date)
  MTT, relative to control (0 = 100): 94.5188 and 92.721 and 92.454 and 82.0932 and 102.751
[2]; 0.3 nM, průměr (mean)
  MTT, relative to control (0 = 100): 88.66
[2]; 0.3 nM, single experiment (date)
  MTT, relative to control (0 = 100): 92.7269 and 86.3547 and 90.8174 and 78.0265 and 95.3944
[2]; 1 nM, průměr (mean)
  MTT, relative to control (0 = 100): 85.74
[2]; 1 nM, single experiment (date)
  MTT, relative to control (0 = 100): 90.3279 and 80.727 and 89.5958 and 78.1202 and 89.9198
